In brackets after ≈: the same amount, converted by molar mass.
Tested on: rhinovirus B14
Experiment: Antiviral activity against HRV-14
Format: functional, organism-based
Details: Rhinovirus B

SMILES	EC50 [µg/mL]
CCOC(=O)c1ccc(OCCC2CCN(c3ccc(C)nn3)CC2)cc1 [PIRODAVIR]	0.0032 (≈ 0.00866 µM)
Cc1cc(CCCOc2c(C)cc(-c3noc(C(F)(F)F)n3)cc2C)on1 [PLECONARIL]	0.03 (≈ 0.0787 µM)
CCOc1nc2cc(OCCC3CCN(c4ccc(C)nn4)CC3)ccc2o1	0.032 (≈ 0.0837 µM)

Reference: ChEMBL document CHEMBL1667776, “Pharmacophore-based design, synthesis, and biological evaluation of novel chloro-pyridazine piperazines as human rhinovirus (HRV-3) inhibitors” (Bioorg Med Chem Lett, 2011)
